Results from US5523315A, “N-(hydroxyethyl)butanediamide derivatives” (Bio-Mega/Boehringer Ingelheim Research Inc., priority 1993, dated 1996).

Target: T1, human renin (Homo sapiens, UniProt P00797)
T1 construct: A human plasma pool is used as the source of both the substrate (angiotensinogen) and the enzyme (renin); from tissue; host or cells: pooled human plasma
T1 sequence (P00797 67-406): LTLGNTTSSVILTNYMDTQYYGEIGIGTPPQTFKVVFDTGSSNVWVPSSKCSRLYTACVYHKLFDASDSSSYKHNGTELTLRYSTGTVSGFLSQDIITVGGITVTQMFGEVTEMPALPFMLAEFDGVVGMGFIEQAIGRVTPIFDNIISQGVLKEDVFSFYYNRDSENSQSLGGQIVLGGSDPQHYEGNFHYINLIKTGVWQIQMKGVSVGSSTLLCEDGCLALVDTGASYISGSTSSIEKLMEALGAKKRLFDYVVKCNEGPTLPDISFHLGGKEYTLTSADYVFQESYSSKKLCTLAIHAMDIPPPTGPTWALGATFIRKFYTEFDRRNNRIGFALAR
Experiment: plasma renin assay (inhibition of human renin; angiotensin I generated, measured by radioimmunoassay)
Type: biochemical
Conditions: human plasma pool, pH 6.0, 2 h incubation at 37°
Outline: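 Pooled human plasma supplies both renin and angiotensinogen; inhibitor in MES/1% HSA buffer (1% DMSO final) incubated 2 h at 37° at pH 6.0. Angiotensin I generated quantified by radioimmunoassay, inhibition relative to no-inhibitor control, IC50 by nonlinear regression.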

SMILES | IC50
CC(C)C[C@H](O)[C@H](O)[C@H](CC1CCCCC1)NC(=O)[C@@H](CC(=O)N(CC(=O)N(C)CCc1ccccn1)CC1(O)CCCCC1)Cc1csc(N)n1 [Compound 49, N^4-[(1-hydroxycyclohexyl)methyl]-N^4 -{2-{methyl[2-(2-pyridinyl)ethyl]amino}-2-oxoethyl}-N^1-[1(S)-(cyclohexylmethyl)-2(R),3(S)-dihydroxy-5-methylhexyl]-2(R)-[(2-amino-4-thiazolyl)methyl]butanediamide] | 2 nM
CC(C)C[C@H](O)[C@H](O)[C@H](CC1CCCCC1)NC(=O)[C@@H](CC(=O)N(CC1CCCC1)CC(C)(C)O)Cc1cscn1 [Compound 50, N^4-(cyclopentylmethyl)-N^4-(2-hydroxy-2-methylpropyl)-N^1-[1(S)-(cyclohexylmethyl)-2(R),3(S)-dihydroxy-5-methylhexyl]-2(R)-(4-thiazolylmethyl)butanediamide] | 13 nM
CC(C)C[C@H](O)[C@H](O)[C@H](CC1CCCCC1)NC(=O)[C@@H](CC(=O)N(CC1CCCCCC1)CC(C)(C)O)Cc1cscn1 [Compound 51, N^4-(cycloheptylmethyl)-N^4-(2-hydroxy-2-methylpropyl)-N^1-[1(S)-(cyclohexylmethyl)-2(R),3(S)-dihydroxy-5-methylhexyl]-2(R)-(4-thiazolylmethyl)butanediamide] | 5 nM
CC(C)C[C@H](O)[C@H](O)[C@H](CC1CCCCC1)NC(=O)[C@@H](CC(=O)N(CC(=O)N(C)C)CC1(O)CCCCC1)Cc1cccnc1 [Compound 52, N^4-[(1-hydroxycyclohexyl)methyl]-N^4-[2-(dimethylamino)-2-oxoethyl]-N^1-[1(S)-(cyclohexylmethyl)-2(R),3(S)-dihydroxy-5-methylhexyl]-2(R)-(3-pyridinylmethyl)butanediamide] | 33 nM
CC(C)C[C@H](O)[C@H](O)[C@H](CC1CCCCC1)NC(=O)[C@@H](CC(=O)N(CC(=O)N(C)C)CC1(O)CCCCCC1)Cc1csc(N)n1 [Compound 53, N^4-[(1-hydroxycycloheptyl)methyl]-N^4-[2-(dimethylamino)-2-oxoethyl]-N^1-[1(S)-(cyclohexylmethyl)-2(R),3(S)-dihydroxy-5-methylhexyl]-2(R)-[(2-amino-4-thiazolyl)methyl]-butanediamide] | 2 nM
CC(C)C[C@H](O)[C@H](O)[C@H](CC1CCCCC1)NC(=O)[C@@H](CC(=O)N(Cc1ccccc1)CC(C)(C)O)Cc1csc(N)n1 [Compound 54, N^4-benzyl-N^4-(2-hydroxy-2-methylpropyl)-N^1-[1(S)-(cyclohexylmethyl)-2(R),3(S)-dihydroxy-5-methylhexyl]-2(R)-[(2-amino-4-thiazolyl)methyl]-butanediamide] | 26 nM
CC(C)C[C@H](O)[C@H](O)[C@H](CC1CCCCC1)NC(=O)[C@@H](CC(=O)N(Cc1ccco1)CC(C)(C)O)Cc1csc(N)n1 [Compound 55, N^4-(2-furanylmethyl)-N^4-(2-hydroxy-2-methylpropyl)-N^1-[1(S)-(cyclohexylmethyl)-2(R),3(S)-dihydroxy-5-methylhexyl]-2(R)-[(2-amino-4-thiazolyl)methyl]butanediamide] | 21 nM
CC(C)C[C@H](O)[C@H](O)[C@H](CC1CCCCC1)NC(=O)[C@@H](CC(=O)N(CC(=O)N(C)C)CC1(O)CCCCCCC1)Cc1csc(N)n1 [Compound 56, N^4-[(1-hydroxycyclooctyl)methyl]-N^4-[2-(dimethylamino)-2-oxoethyl]-N^1-[1(S)-(cyclohexylmethyl)-2(R),3(S)-dihydroxy-5-methylhexyl]-2(R)-[(2-amino-4-thiazolyl)methyl]butanediamide] | 1 nM
Cc1ccccc1CN(CC(C)(C)O)C(=O)C[C@@H](Cc1csc(N)n1)C(=O)N[C@@H](CC1CCCCC1)[C@@H](O)[C@@H](O)CC(C)C [Compound 57, N^4-[(2-methylphenyl)methyl]-N^4-(2-hydroxy-2-methylpropyl)-N^1-[1(S)-(cyclohexylmethyl)-2(R),3(S)-dihydroxy-5-methylhexyl]-2(R)-[(2-amino-4-thiazolyl)methyl]butanediamide] | 37 nM
CCC(CC)CN(CC(C)(C)O)C(=O)C[C@@H](Cc1csc(N)n1)C(=O)N[C@@H](CC1CCCCC1)[C@@H](O)[C@@H](O)CC(C)C [Compound 58, N^4-(2-ethylbutyl)-N^4-(2-hydroxy-2-methylpropyl)-N^1-[1(S)-(cyclohexylmethyl)-2(R),3(S)-dihydroxy-5-methylhexyl]-2(R)-[(2-amino-4-thiazolyl)methyl]butanediamide] | 15 nM
CC(C)C[C@H](O)[C@H](O)[C@H](CC1CCCCC1)NC(=O)[C@@H](CC(=O)N(CC(=O)N(C)CCc1ccccn1)CC1(O)CCCCCC1)Cc1csc(N)n1 [Compound 59, N^4-[(1-hydroxycycloheptyl)methyl]-N^4 -{2-{methyl[2-(2-pyridinyl)ethyl]amino}-2-oxoethyl}-N^1-[1(S)-(cyclohexylmethyl)-2(R),3(S)-dihydroxy-5-methylhexyl]-2(R)-[(2-amino-4-thiazolyl)methyl]butanediamide] | 1.5 nM
CC(=O)CN(CC1CCCCC1)C(=O)C[C@@H](Cc1cscn1)C(=O)N[C@@H](CC1CCCCC1)[C@@H](O)[C@@H](O)CC(C)C [Compound 60, N^4-(cyclohexylmethyl)-N^4-(2-oxopropyl)-N^1-[1(S)-(cyclohexylmethyl)-2(R),3(S)-dihydroxy-5-methylhexyl]-2(R)-(4-thiazolylmethyl)butanediamide] | 2 nM
CC(C)C[C@H](O)[C@H](O)[C@H](CC1CCCCC1)NC(=O)[C@@H](CC(=O)N(CC(=O)C(C)C)CC1CCCCC1)Cc1cscn1 [Compound 61, N^4-(cyclohexylmethyl)-N^4-(3-methyl-2-oxobutyl)-N^1-[1(S)-(cyclohexylmethyl)-2(R),3(S)-dihydroxy-5-methylhexyl]-2(R)-(4-thiazolylmethyl)butanediamide] | 9 nM
COC1(CN(CC(=O)N(C)CCc2ccccn2)C(=O)C[C@@H](Cc2csc(N)n2)C(=O)N[C@@H](CC2CCCCC2)[C@@H](O)[C@@H](O)CC(C)C)CCCCC1 [Compound 62, N^4-[(1-methoxycyclohexyl)methyl]-N^4 -{2-{methyl[2-(2-pyridinyl)ethyl]amino}-2-oxoethyl}-N^1-[1(S)-(cyclohexylmethyl)-2(R),3(S)-dihydroxy-5-methylhexyl]-2(R)-[(2-amino-4-thiazolyl)methyl]butanediamide] | 2 nM
CC(C)C[C@H](O)[C@H](O)[C@H](CC1CCCCC1)NC(=O)[C@@H](CC(=O)N(CC(=O)C(C)C)CC1CCCCC1)Cc1csc(N)n1 [Compound 63, N^4-(cyclohexylmethyl)-N^4-(3-methyl-2-oxobutyl)-N^1-[1(S)-(cyclohexylmethyl)-2(R),3(S)-dihydroxy-5-methylhexyl]-2(R)-[(2-amino-4-thiazolyl)methyl]butanediamide] | 5 nM
